In PMC3602595, “The Structure of HasB Reveals a New Class of TonB Protein Fold” (PLoS ONE, 2013):
Ends that are not written are not given here.

Experiments:
[1] = Conformation of 21-mer peptide in solution by 2D TOCSY, NOESY and ROESY; assay type: physicochemical; conditions: free peptide, data not shown
HasBCTD [2] = test: NMR chemical shift perturbation of HasBCTD by HasR TonB box peptides; assay type: binding, Serratia marcescens; conditions: for chemical shift perturbation in 15N-1H HSQC spectra of HasBCTD: NMR HSQC, 293K, 50 mM sodium phosphate buffer, pH 7, 50 mM NaCl, 15% D2O/H2O, peptide:HasBCTD ratios 1∶2 to 4∶1, CSP >0.2 ppm considered large
Procedure: All NMR experiments were recorded at 293K on a Varian 600 MHz spectrometer with a cryogenically cooled triple resonance ^1H/(^15N/^13C) PFG probe. Proton chemical shifts were referenced to 2,2-dimethyl-2-silapentane-5-sulfonate (DSS) as 0 ppm. ^15N and ^13C chemical shifts were referenced indirectly to DSS. The pulse sequences were taken as implemented in the Varian BioPack. NMR data were processed using NMRPipe/NMRDraw and spectra were analyzed using NMRViewJ and CCPNMR Analysis, [24]. The HasB samples used for NMR experiments were from 0.35 to 0.7 mM in 50 mM sodium phosphate buffer, pH 7, 50 mM NaCl and 15% D2O/H2O (v/v).
CSP values of ^1H and ^15N amide of HasBCTD were obtained after interaction with the TonB box peptide by comparing the ^1H-^15N HSQC spectra of free and bound HasBCTD as previously explained. The samples were prepared in 50 mM sodium phosphate buffer, pH 7, 50 mM NaCl and 15% D2O/H20 (v/v). Lyophilized peptides were added to the HasBCTD solution at 1∶2, 1∶1, 2∶1 and 4∶1 ratios. CSP values greater than 0.2 ppm were considered as large. For proline residues no chemical shift change can be observed because of the lack of backbone amide proton.

HasBCTD [3] = test: ITC interaction of HasBCTD with HasR TonB box peptides; assay type: binding, Serratia marcescens
Procedure: (§1) The TonB box peptides were synthesized with free acid C- and amine N-termini by Proteogenix (Strasbourg, France).
(§2) ITC was performed at 25°C using a MicroCal VP titration calorimeter (MicroCal-GE Healthcare) under the same conditions as described previously. The buffer was 20 mM sodium phosphate, pH 7, 50 mM NaCl for all the titrations, except for experiments carried out in the presence of HasR where 20 mM sodium phosphate, pH 7, 0.08% ZW 3–14 was used.
The heat of dilution of peptide/protein injections was determined either by injecting the ligand into the buffer alone or by injecting the ligand into the cell after the saturation of the protein binding site. The value obtained was subtracted from the heat of reaction to give the effective heat of binding. The resulting titration data were analyzed using Microcal-ORIGIN software package. The molar binding stoichiometry (N), association constant (Ka; Kd = 1/Ka) and enthalpy changes (ΔH) of binding were determined by fitting the binding isotherm to a model with one set of sites. Their values are the average of three experiments. […] For HasR titration experiments with HasB, 5–8×10^−5 M of HasBCTD wild type or mutants and 3–5 µM of HasR were used.

TonBCTD = biological target: T1, TonBCTD (Escherichia coli, UniProt P02929); test: ITC interaction of TonBCTD with TonB box peptide; assay type: binding, E. coli
T1 construct: TonBCTD (TonB C-terminal domain); made in house
T1 sequence (P02929 148-239): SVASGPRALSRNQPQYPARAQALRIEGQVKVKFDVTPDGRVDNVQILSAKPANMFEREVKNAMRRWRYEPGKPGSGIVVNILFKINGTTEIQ
Procedure: Labeled and unlabeled HasBCTD (named HasB133 in our earlier publication) were prepared as described. TonBCTD of E. coli , previously named TonB116, was prepared as already reported. HasB mutations were introduced by PCR into the plasmid encoding HasBCTD wild type with the following pairs of oligonucleotides:
as §1, §2
The heat of dilution of peptide/protein injections was determined either by injecting the ligand into the buffer alone or by injecting the ligand into the cell after the saturation of the protein binding site. The value obtained was subtracted from the heat of reaction to give the effective heat of binding. The resulting titration data were analyzed using Microcal-ORIGIN software package. The molar binding stoichiometry (N), association constant (Ka; Kd = 1/Ka) and enthalpy changes (ΔH) of binding were determined by fitting the binding isotherm to a model with one set of sites. Their values are the average of three experiments. HasBCTD/TonBCTD titrations with peptides were carried out by injecting 20–35 consecutive aliquots of 5–10 µL of a 1–1.5 mM peptide solution into the ITC cell containing 4 to 9×10^−5 M of protein solution of either HasBCTD or TonBCTD. For HasR titration experiments with HasB, 5–8×10^−5 M of HasBCTD wild type or mutants and 3–5 µM of HasR were used.

| Sequence | conformation in solution [1] | location of the most substantial CSP on HasBCTD (HasBCTD [2]; 15N HSQC, 21-mer peptide) | chemical shift perturbation in 15N-1H HSQC spectra of HasBCTD (HasBCTD [2]) | affinity constant (Ka) (HasBCTD [3]; ITC, HasBCTD, 25°C, 20 mM sodium phosphate, pH 7, 50 mM NaCl, one set of sites, average of three experiments, HasBCTD 9×10^−5 M, peptide 1.5 mM) [M⁻¹] | Kd (HasBCTD [3]; ITC, HasBCTD, 25°C, 20 mM sodium phosphate, pH 7, 50 mM NaCl, Kd = 1/Ka) [µM] | affinity (association constant Ka) (TonBCTD; ITC, TonBCTD, 25°C, 20 mM sodium phosphate, pH 7, 50 mM NaCl, one set of sites, average of three experiments) | Kd (TonBCTD; ITC, TonBCTD, 25°C, 20 mM sodium phosphate, pH 7, 50 mM NaCl, Kd = 1/Ka) [µM] | interaction with TonBCTD (in words) (TonBCTD; same range of concentration as that used with HasBCTD) | interaction with HasBCTD (in words) (HasBCTD [3]; ITC and NMR CSP) |
| --- | --- | --- | --- | --- | --- | --- | --- | --- | --- |
| GDGGALALDSLTVLGAGGNNA [21-mer peptide] | unstructured in solution | especially along the strand β3 and on the helix H1 | several CSP were observed | 40000 | 25 |  |  |  |  |
| ALDSLTVLGAGG [dodecamer peptide] |  |  | no chemical shift perturbation could be observed |  |  | about 2×10^4 M^−1 | 50 | able to bind to TonBCTD | did not reveal any interaction with HasBCTD |
